Converted amounts (≈) assume the structure as drawn.
Assays:
[1] = tested on: S. aureus Mu50; test: microbe, parasite or virus in culture; format: cell-based, Staphylococcus aureus; conditions: for MIC (mg/L) Mu50: Example 1, Tables 1 to 10; for MIC: Staphylococcus aureus, MU50, read-out: MIC (mg/L) Mu50, Example 1, Tables 1 to 10
Method: (§1) S. aureus Mu50 (refer to Hiramatsu, K., Hanaki H., et al., J. Antimicrob. Chemother., 1997, 40(1), 135-6) or S. aureus FDA209P (ATCC 6538P) was cultured overnight at 37° C. in 4 mL of TBS (Tryptical Soy Broth, produced by Becton Dickinson) with shaking. After completion of the culture, the cells were suspended in fresh TBS to prepare a cell suspension showing an absorbance of 0.3 at 578 nm. Then, the cell suspension was diluted 500 times with CAMHB mentioned above.
(§2) CAMHB containing each test compound at each of the aforementioned concentrations was added to each well of a 96-well plate in a volume of 50 μL/well, the aforementioned cell suspension diluted 500 time was added to the well in a volume of 50 μL/well, and stationary culture was carried out overnight at 37° C.
(§3) MIC values (mg/L) of the flavones and quinolones against the strains were measured in the same manner as that of the measurement of MIC of Example 1, except that CAMHB containing each of the aforementioned flavones and quinolones prepared in Example 2 was used instead of CAMHB containing each of the test compounds.
(§4) MIC values of the flavones and quinolone for the strains were measured in the same manners as those of Example 1, except that S. aureus Mu50 NR-1 was also used as Staphylococcus aureus in addition to S. aureus FDA209P and S. aureus Mu50, cell suspensions of the strains were prepared.
(§5) In the same manner as that of Example 1, MIC values of M-246, M-21, J-Q21, and J-Q12.1 for Staphylococcus aureus were measured. M-246 and M-21 were obtained as commercial products, and as J-Q21 and J-Q12.1, those synthesized in Examples 6 and 7 were used.

[2] = tested on: S. aureus FDA209P (ATCC 6538P); test: microbe, parasite or virus in culture; format: cell-based, Staphylococcus aureus; conditions: Example 1, Tables 1 to 10; for MIC: Staphylococcus aureus, read-out: MIC (mg/L) FDA209P
Method: as §1, §2, §3, §4, §5

| SMILES | MIC (mg/L) Mu50 [1] | MIC (mg/L) FDA209P [2] | MIC [1] | MIC [2] |
| --- | --- | --- | --- | --- |
| COc1cc(OC)c2c(=O)c(OC)c(-c3ccc(OC)c(OC)c3)oc2c1 [compound 19] | >128 mg/L | >128 mg/L |  |  |
| COc1cc(OC)c2c(=O)cc(-c3ccccc3)oc2c1C [compound 21] | >128 mg/L | >128 mg/L |  |  |
| CC(C)Oc1ccc(-c2cc(=O)c3c(OC(C)C)cc(OC(C)C)c(I)c3o2)cc1 [compound 23] | >128 mg/L | >128 mg/L |  |  |
| COc1c(O)cc2oc(-c3ccc(O)cc3)c(OC)c(=O)c2c1O [compound 27] |  |  | > 128 mg/L | > 128 mg/L |
| COc1cc2oc(-c3ccc(O)cc3)cc(=O)c2c(O)c1OC [compound 28] |  |  | > 128 mg/L | > 128 mg/L |
| COc1cc(-c2oc3cc(O)c(OC)c(O)c3c(=O)c2OC)ccc1O [compound 29] |  |  | > 128 mg/L | > 128 mg/L |
| COc1ccc(-c2cc(=O)c3c(OC)c(OC)c(OC)c(OC)c3o2)cc1 [compound 30] |  |  | > 128 mg/L | 128 mg/L (≈ 344 µM) |
| COc1cc2oc(-c3ccc(O)c(O)c3)cc(=O)c2c(O)c1OC [compound 31] |  |  | > 128 mg/L | > 128 mg/L |
| COc1ccc(-c2oc3cc4c(c(OC)c3c(=O)c2OC)OCO4)cc1 [compound 32] | >128 mg/L | >128 mg/L |  |  |
| COc1ccc(-c2oc3cc(OC)c(OC)c(O)c3c(=O)c2OC)cc1O [compound 33] |  |  | 128 mg/L (≈ 342 µM) | > 128 mg/L |
| COc1ccc(-c2cc(=O)c3c(O)c(O)c(O)cc3o2)cc1 [compound 34] |  |  | 128 mg/L (≈ 426 µM) | 128 mg/L (≈ 426 µM) |
| CC(=O)Oc1cc(OC(C)=O)c2c(=O)cc(-c3ccc(OC(C)=O)c(OC(C)=O)c3)oc2c1 [compound 36] |  |  | > 128 mg/L | > 128 mg/L |
| O=c1c(O)c(-c2ccc(O)c(O)c2)oc2c(O)c(O)cc(O)c12 [compound 37] | 64 mg/L (≈ 201 µM) |  | 62 mg/L (≈ 195 µM) | 128 mg/L (≈ 402 µM) |
| COc1ccc(-c2cc(=O)c3c(OC)c(OC)c(OC)cc3o2)cc1O [compound 39] |  |  | 128 mg/L (≈ 357 µM) | 128 mg/L (≈ 357 µM) |
| COc1ccc(-c2cc(=O)c3c(O)c(OC)c(OC)cc3o2)cc1O [compound 40] |  |  | 128 mg/L (≈ 372 µM) | 128 mg/L (≈ 372 µM) |
| O=c1cc(-c2ccc(O)cc2)oc2cc(O)c(O)c(O)c12 [compound 41] |  |  | 128 mg/L (≈ 447 µM) | 128 mg/L (≈ 447 µM) |
| COc1ccc(-c2cc(=O)c3c(OC)c(OC)c(OC)cc3o2)cc1OC [compound 42] |  |  | > 128 mg/L | > 128 mg/L |
| COc1cc(OC)c2c(=O)cc(-c3cc(OC)c(OC)c(OC)c3)oc2c1 [compound 43] |  |  | > 128 mg/L | > 128 mg/L |
| CC1(C)C=Cc2c(cc3oc(-c4ccc(O)cc4)cc(=O)c3c2O)O1 [compound 44] |  |  | > 128 mg/L | > 128 mg/L |
| O=c1cc(-c2ccc(O)c(-c3c(O)cc(O)c4c(=O)cc(-c5ccc(O)cc5)oc34)c2)oc2cc(O)cc(O)c12 [compound 45] |  |  | > 128 mg/L | > 128 mg/L |
| COc1cc(OC)c2c(=O)cc(-c3ccccc3)oc2c1C1=COC(C)(C)C1=O [compound 46] |  |  | > 128 mg/L | 128 mg/L (≈ 326 µM) |
| COc1cc(O)c(CN(C)C)c2oc(-c3ccccc3)cc(=O)c12 [compound 47] |  |  | > 128 mg/L | 128 mg/L (≈ 393 µM) |
| COc1cc(O)c(CN2CCCCC2)c2oc(-c3ccccc3)cc(=O)c12 [compound 48] | >128 mg/L | 128 mg/L (≈ 350 µM) |  |  |
| COc1cc(O)c(CN2CC(C)CC(C)C2)c2oc(-c3ccccc3)cc(=O)c12 (stereo not drawn) [compound 49] | >128 mg/L | 128 mg/L (≈ 325 µM) |  |  |
| COc1cc(O)c(CN2CCOCC2)c2oc(-c3ccccc3)cc(=O)c12 [compound 50] |  |  | > 128 mg/L | > 128 mg/L |

| SMILES | MIC (mg/L) Mu50 [1] | MIC (mg/L) FDA209P [2] | MIC [1] | MIC [2] |
| --- | --- | --- | --- | --- |
| COc1cc(O)c(CN2CCN(C)CC2)c2oc(-c3ccccc3)cc(=O)c12 [compound 51] | 128 mg/L (≈ 336 µM) | 128 mg/L (≈ 336 µM) |  |  |
| COc1cc(O)c(CN2CCCCC2C)c2oc(-c3ccccc3)cc(=O)c12 (stereo not drawn) [compound 52] | >128 mg/L | >128 mg/L |  |  |
| O=c1c(O)c(-c2ccccc2S(=O)(=O)O)oc2ccccc12 [compound 54] |  |  | 128 mg/L (≈ 402 µM) | 128 mg/L (≈ 402 µM) |
| Cc1c(-c2ccccc2)oc2c(C(=O)OCCN3CCCCC3)cccc2c1=O [compound 55] |  |  | > 128 mg/L | 128 mg/L (≈ 327 µM) |
| CC(=O)C1C(=O)c2ccccc2N(c2ccccc2)C1=O (stereo not drawn) [compound 56] |  |  | > 128 mg/L | > 128 mg/L |
| O=c1cc(-c2ccccc2)oc2ccc3ccccc3c12 [compound 57] | 128 mg/L (≈ 470 µM) | 128 mg/L (≈ 470 µM) |  |  |
| O=c1cc(-c2ccccc2)oc2c1ccc1ccccc12 [compound 58] | 128 mg/L (≈ 470 µM) | 128 mg/L (≈ 470 µM) |  |  |
| O=C(O)[C@H]1O[C@@H](Oc2cc3oc(-c4ccccc4)cc(=O)c3c(O)c2O)[C@H](O)[C@@H](O)[C@@H]1O [compound 59] |  |  | 128 mg/L (≈ 287 µM) | 128 mg/L (≈ 287 µM) |
| O=c1cc(-c2ccc(O)c(O)c2)oc2c(C3OC(CO)C(O)C(O)C3O)c(O)cc(O)c12 (stereo not drawn) [compound 60] | >128 mg/L | >128 mg/L |  |  |
| O=c1c(O)c(-c2ccc(O)c(O)c2)oc2c(OC3OC(CO)C(O)C(O)C3O)c(O)cc(O)c12 (stereo not drawn) [compound 61] | 128 mg/L (≈ 266 µM) | 128 mg/L (≈ 266 µM) |  |  |
| O=C(O)C1OC(Oc2cc(O)c3c(=O)cc(-c4ccc(O)c(O)c4)oc3c2)C(O)C(O)C1O (stereo not drawn) [compound 62] | >128 mg/L | >128 mg/L |  |  |
| O=c1cc(-c2ccc(OC3OC(CO)C(O)C(O)C3O)cc2)oc2cc(O)cc(O)c12 (stereo not drawn) [compound 63] | 128 mg/L (≈ 296 µM) | 128 mg/L (≈ 296 µM) |  |  |
| O=c1cc(-c2ccc(O[C@@H]3O[C@H](CO)[C@@H](O)[C@H](O)[C@H]3O)c(O)c2)oc2cc(O)cc(O)c12 [compound 64] |  |  | > 128 mg/L | > 128 mg/L |
| O=c1c(OC2OC(CO)C(O)C(O)C2O)c(-c2ccc(O)cc2)oc2cc(O)cc(O)c12 (stereo not drawn) [compound 65] | >128 mg/L | >128 mg/L |  |  |
| O=C(O)C1OC(Oc2ccc(-c3cc(=O)c4c(O)cc(O)cc4o3)cc2O)C(O)C(O)C1O (stereo not drawn) [compound 67] | 128 mg/L (≈ 277 µM) | 128 mg/L (≈ 277 µM) |  |  |
| O=c1cc(-c2ccc(O)cc2)oc2ccccc12 [compound 68, 2-(4-hydroxyphenyl)chromen-4-one] |  |  | 128 mg/L (≈ 537 µM) | 128 mg/L (≈ 537 µM) |
| O=c1cc(-c2ccc(O)cc2)oc2cccc(O)c12 [compound 70] |  |  | 128 mg/L (≈ 503 µM) | 128 mg/L (≈ 503 µM) |
| CCOC(=O)c1oc2cc(O)cc(O)c2c(=O)c1-c1ccc(OC)cc1 [compound 71] |  |  | 128 mg/L (≈ 359 µM) | 128 mg/L (≈ 359 µM) |
| COc1ccc(-c2coc3cc(OC(C)=O)cc(OC(C)=O)c3c2=O)cc1 [compound 72] |  |  | > 128 mg/L | > 128 mg/L |
| COc1ccc(-c2c(C)oc3cc(O)cc(O)c3c2=O)cc1OC [compound 73] |  |  | > 128 mg/L | 128 mg/L (≈ 390 µM) |
| COc1ccc(-c2coc3cc(OC)cc(O)c3c2=O)cc1 [compound 74] |  |  | > 128 mg/L | > 128 mg/L |
| CCOc1ccc(-c2coc3cc(OCC)cc(OCC)c3c2=O)cc1 [compound 75] |  |  | > 128 mg/L | > 128 mg/L |
| COc1ccc(-c2coc3cc(OC)cc(OC)c3c2=O)cc1 [compound 76] |  |  | > 128 mg/L | > 128 mg/L |
| CC(=O)Oc1cc(OC(C)=O)c2c(=O)c(-c3ccc4c(c3)OCCO4)c(C)oc2c1 [compound 77] | >128 mg/L | >128 mg/L |  |  |
